How the values were obtained:
[1] = target: Human α2δ-1 subunit of Cav2.2 calcium channel (Homo sapiens, UniProt P54289); assay: Human α2δ-1 subunit of Cav2.2 calcium channel assay ([3H]-gabapentin binding); conditions: binding to the α2δ-1 subunit of voltage-gated calcium channels, expressed as Ki class; + also covers inhibition between 1% and 50%
Outline: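 Human α2δ-1 enriched membranes (2.5 μg) incubated 60 min at 27° C. with 15 nM [3H]-gabapentin in 10 mM Hepes-KOH pH 7.4; non-specific binding with 10 μM pregabalin. Filtration binding; % inhibition at 1 or 10 μM, or Ki from five concentrations.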

Human σ1 receptor = target: T1, Human σ1 receptor (Homo sapiens, UniProt Q99720); assay: Human σ1 receptor radioligand assay ([3H](+)-pentazocine binding); conditions: binding to the σ1 receptor, expressed as Ki class; + also covers inhibition between 1% and 50%
T1 construct: expressed in transfected cells; host or cells: HEK-293
T1 sequence (Q99720 whole entry): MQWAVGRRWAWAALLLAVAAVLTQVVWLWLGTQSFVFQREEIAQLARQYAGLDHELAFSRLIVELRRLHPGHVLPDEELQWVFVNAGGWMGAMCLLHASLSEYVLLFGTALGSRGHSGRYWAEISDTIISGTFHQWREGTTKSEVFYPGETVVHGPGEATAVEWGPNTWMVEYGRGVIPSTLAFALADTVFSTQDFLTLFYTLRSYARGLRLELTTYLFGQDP
Outline: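 Membranes (7 μg) were incubated with 5 nM [3H](+)-pentazocine in 50 mM Tris-HCl pH 8 for 120 min at 37° C. Non-specific binding was defined with 10 μM haloperidol. Values are % inhibition at 1 or 10 μM or Ki from five concentrations, read by filtration and scintillation counting.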

Human α2δ-1 subunit of Cav2.2 calcium channel, sequence (P54289 25-1103): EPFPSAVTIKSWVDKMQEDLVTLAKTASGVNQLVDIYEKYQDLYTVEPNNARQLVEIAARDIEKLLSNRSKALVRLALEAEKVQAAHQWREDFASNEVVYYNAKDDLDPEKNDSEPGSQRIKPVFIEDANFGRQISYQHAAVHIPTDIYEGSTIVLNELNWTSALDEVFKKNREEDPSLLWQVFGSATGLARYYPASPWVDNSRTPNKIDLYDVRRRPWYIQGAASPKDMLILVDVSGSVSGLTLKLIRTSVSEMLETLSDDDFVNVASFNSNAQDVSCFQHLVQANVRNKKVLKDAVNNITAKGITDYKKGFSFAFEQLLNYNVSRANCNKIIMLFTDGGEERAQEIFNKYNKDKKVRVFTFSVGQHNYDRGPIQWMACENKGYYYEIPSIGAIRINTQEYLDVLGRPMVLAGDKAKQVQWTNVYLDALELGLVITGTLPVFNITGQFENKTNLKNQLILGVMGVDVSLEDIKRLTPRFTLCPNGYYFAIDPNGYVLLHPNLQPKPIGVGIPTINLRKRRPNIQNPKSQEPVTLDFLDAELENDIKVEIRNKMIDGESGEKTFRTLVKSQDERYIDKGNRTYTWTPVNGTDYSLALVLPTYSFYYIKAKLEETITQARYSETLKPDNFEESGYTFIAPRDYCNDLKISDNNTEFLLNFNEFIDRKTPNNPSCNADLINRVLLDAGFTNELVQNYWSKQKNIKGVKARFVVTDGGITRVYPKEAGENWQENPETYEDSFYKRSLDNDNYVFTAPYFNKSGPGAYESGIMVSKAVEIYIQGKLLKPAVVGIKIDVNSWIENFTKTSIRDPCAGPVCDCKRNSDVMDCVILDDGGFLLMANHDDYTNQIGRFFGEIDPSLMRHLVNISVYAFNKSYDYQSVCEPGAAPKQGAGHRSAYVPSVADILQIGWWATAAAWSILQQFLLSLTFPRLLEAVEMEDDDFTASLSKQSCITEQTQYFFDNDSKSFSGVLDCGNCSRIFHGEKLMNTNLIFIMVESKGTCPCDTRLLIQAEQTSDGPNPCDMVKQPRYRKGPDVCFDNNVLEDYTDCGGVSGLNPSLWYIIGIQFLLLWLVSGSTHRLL

Which Ki [1] does the source give for `CCCCn1c([C@@H](CCC)N2CCCN(C)CC2)nc2ccc(F)cc2c1=O` [Example 224, (R)-3-butyl-6-fluoro-2-(1-(4-methyl-1,4-diazepan-1-yl)butyl)quinazolin-4(3H)-one] here?
The Ki was < 500 nM.

And the Ki (Human σ1 receptor)?
The Ki was < 500 nM.

Which results are given for `CCCCn1c([C@@H](CCC)N2CCCN(CC)CC2)nc2ccc(F)cc2c1=O` [Example 225, (R)-3-butyl-2-(1-(4-ethyl-1,4-diazepan-1-yl)butyl)-6-fluoroquinazolin-4(3H)-one]?
Ki [1]: < 500 nM; Ki (Human σ1 receptor): < 500 nM

With `CCC[C@H](c1nc2ccc(F)cc2c(=O)n1CCC(C)C)N1CCCN(C)CC1` [Example 226, (R)-6-fluoro-3-isopentyl-2-(1-(4-methyl-1,4-diazepan-1-yl)butyl)quinazolin-4(3H)-one] as the compound, how does the Ki [1] read?
The Ki was > 5000 nM.

What about the Ki (Human σ1 receptor) of the same compound?
The Ki was < 500 nM.

Which results are given for `CCC[C@H](c1nc2ccc(F)cc2c(=O)n1Cc1ccoc1)N1CCCN(C)CC1` [Example 227]?
Ki [1]: < 500 nM; Ki (Human σ1 receptor): < 500 nM

Which results are given for `CCC[C@H](c1nc2ccc(F)cc2c(=O)n1Cc1ccoc1)N1CCCN(CC)CC1` [Example 228, (R)-2-(1-(4-ethyl-1,4-diazepan-1-yl)butyl)-6-fluoro-3-(furan-3-ylmethyl)quinazolin-4(3H)-one]?
Ki [1]: 500 to 5000 nM; Ki (Human σ1 receptor): < 500 nM

With `CCC[C@H](c1nc2cc(OC)c(F)cc2c(=O)n1CC)N1CCCN(C)CC1` [Example 230, (R)-3-ethyl-6-fluoro-7-methoxy-2-(1-(4-methyl-1,4-diazepan-1-yl)butyl)quinazolin-4(3H)-one] as the compound, how does the Ki [1] read?
The Ki was < 500 nM.

What about the Ki (Human σ1 receptor) of the same compound?
The Ki was 500 to 1000 nM.

Which Ki [1] does the source give for `CCC[C@H](c1nc2cc(OC)c(F)cc2c(=O)n1CC)N1CCCN(CC)CC1` [Example 231, (R)-3-ethyl-2-(1-(4-ethyl-1,4-diazepan-1-yl)butyl)-6-fluoro-7-methoxyquinazolin-4(3H)-one] here?
Its Ki is < 500 nM.

And the Ki (Human σ1 receptor)?
The Ki was 500 to 1000 nM.

`CCC[C@H](c1nc2cc(F)c(F)cc2c(=O)n1CC)N1CCCN(C)CC1` [Example 232, (R)-3-ethyl-6,7-difluoro-2-(1-(4-methyl-1,4-diazepan-1-yl)butyl)quinazolin-4(3H)-one] was tested. Which Ki [1] did it give?
Its Ki is < 500 nM.

And the Ki (Human σ1 receptor)?
The Ki was < 500 nM.

With `CCC[C@H](c1nc2ccc(F)c(F)c2c(=O)n1CC)N1CCCN(C)CC1` [Example 233, (R)-3-ethyl-5,6-difluoro-2-(1-(4-methyl-1,4-diazepan-1-yl)butyl)quinazolin-4(3H)-one] as the compound, how does the Ki [1] read?
Its Ki is < 500 nM.

What about the Ki (Human σ1 receptor) of the same compound?
The Ki was < 500 nM.

What does the source list for `CCC[C@H](c1nc2c(F)cc(Cl)cc2c(=O)n1CC)N1CCCN(C)CC1` [Example 234, (R)-6-chloro-3-ethyl-8-fluoro-2-(1-(4-methyl-1,4-diazepan-1-yl)butyl)quinazolin-4(3H)-one]?
Ki [1]: < 500 nM; Ki (Human σ1 receptor): 500 to 1000 nM

Which Ki [1] does the source give for `CCC[C@H](c1nc2ccc(F)cc2c(=O)n1CC)N1CCN[C@H](C)CC1` [Example 235, 3-ethyl-6-fluoro-2-((R)-1-((R)-5-methyl-1,4-diazepan-1-yl)butyl)quinazolin-4(3H)-one] here?
Its Ki is < 500 nM.

And the Ki (Human σ1 receptor)?
The Ki was > 1000 nM.

What does the source list for `CCC[C@H](c1nc2ccc(F)cc2c(=O)n1CC)N1CCN[C@@H](C)CC1` [Example 236, 3-ethyl-6-fluoro-2-((R)-1-((S)-5-methyl-1,4-diazepan-1-yl)butyl)quinazolin-4(3H)-one]?
Ki [1]: < 500 nM; Ki (Human σ1 receptor): < 500 nM

`CCC[C@H](c1nc2cc(F)c(OC)cc2c(=O)n1CC)N1CCN(C)C[C@@H](C)C1` [Example 237, 2-((R)-1-((R)-4,6-dimethyl-1,4-diazepan-1-yl)butyl)-3-ethyl-7-fluoro-6-methoxyquinazolin-4(3H)-one] was tested. Which Ki [1] did it give?
The Ki was < 500 nM.

What about the Ki (Human σ1 receptor) of the same compound?
Its Ki is > 1000 nM.

With `CCC[C@H](c1nc2cc(F)c(OC)cc2c(=O)n1CC)N1CCN(C)C[C@H](C)C1` [Example 238, 2-((R)-1-((S)-4,6-dimethyl-1,4-diazepan-1-yl)butyl)-3-ethyl-7-fluoro-6-methoxyquinazolin-4(3H)-one] as the compound, how does the Ki [1] read?
The Ki was < 500 nM.

And the Ki (Human σ1 receptor)?
Its Ki is 500 to 1000 nM.

What does the source list for `CCC[C@H](c1nc2ccc(F)c(F)c2c(=O)n1CC)N1CCN[C@H](C)CC1` [Example 239, 3-ethyl-5,6-difluoro-2-((R)-1-((R)-5-methyl-1,4-diazepan-1-yl)butyl)quinazolin-4(3H)-one]?
Ki [1]: > 5000 nM; Ki (Human σ1 receptor): > 1000 nM

Which results are given for `CCC[C@H](c1nc2ccc(F)c(F)c2c(=O)n1CC)N1CCN[C@@H](C)CC1` [Example 240, 3-ethyl-5,6-difluoro-2-((R)-1-((S)-5-methyl-1,4-diazepan-1-yl)butyl)quinazolin-4(3H)-one]?
Ki [1]: < 500 nM; Ki (Human σ1 receptor): < 500 nM

`CCC[C@H](c1nc2cc(F)c(F)cc2c(=O)n1CC)N1CCN[C@H](C)CC1` [Example 241, 3-ethyl-6,7-difluoro-2-((R)-1-((R)-5-methyl-1,4-diazepan-1-yl)butyl)quinazolin-4(3H)-one] was tested. Which Ki [1] did it give?
The Ki was < 500 nM.

What about the Ki (Human σ1 receptor) of the same compound?
The Ki was 500 to 1000 nM.

Which Ki [1] does the source give for `CCC[C@H](c1nc2cc(F)c(F)cc2c(=O)n1CC)N1CCN[C@@H](C)CC1` [Example 242, 3-ethyl-6,7-difluoro-2-((R)-1-((S)-5-methyl-1,4-diazepan-1-yl)butyl)quinazolin-4(3H)-one] here?
The Ki was < 500 nM.

And the Ki (Human σ1 receptor)?
The Ki was < 500 nM.

`CCC[C@H](c1nc2cc(F)c(OC)cc2c(=O)n1CC)N1CCNC[C@@H](C)C1` [Example 243, 3-ethyl-7-fluroo-6-methoxy-2-((R)-1-((R)-6-methyl-1,4-diazepan-1-yl)butyl)quinazolin-4(3H)-one] was tested. Which Ki [1] did it give?
Its Ki is < 500 nM.

And the Ki (Human σ1 receptor)?
The Ki was > 1000 nM.

With `CCC[C@H](c1nc2cc(F)c(OC)cc2c(=O)n1CC)N1CCNC[C@H](C)C1` [Example 244, 3-ethyl-7-fluoro-6-methoxy-2-((R)-1-((S)-6-methyl-1,4-diazepan-1-yl)butyl)quinazolin-4(3H)-one] as the compound, how does the Ki [1] read?
The Ki was 500 to 5000 nM.

What about the Ki (Human σ1 receptor) of the same compound?
Its Ki is > 1000 nM.

How did the Ki [1] turn out when `CCC[C@H](c1nc2ccc(Cl)cc2c(=O)n1C)N1CCN[C@H](C)CC1` [Example 245, 6-chloro-3-methyl-2-((R)-1-((R)-5-methyl-1,4-diazepan-1-yl)butyl)quinazolin-4(3H)-one] was run?
The Ki was > 5000 nM.

What about the Ki (Human σ1 receptor) of the same compound?
Its Ki is 500 to 1000 nM.

What does the source list for `CCC[C@H](c1nc2ccc(Cl)cc2c(=O)n1C)N1CCN[C@@H](C)CC1` [Example 246, 6-chloro-3-methyl-2-((R)-1-((S)-5-methyl-1,4-diazepan-1-yl)butyl)quinazolin-4(3H)-one]?
Ki [1]: 500 to 5000 nM; Ki (Human σ1 receptor): < 500 nM

How did the Ki [1] turn out when `CCC[C@H](c1nc2c(F)cc(F)cc2c(=O)n1CC)N1CCCN(C)CC1` [Example 247, (R)-3-ethyl-6,8-difluoro-2-(1-(4-methyl-1,4-diazepan-1-yl)butyl)quinazolin-4(3H)-one] was run?
The Ki was < 500 nM.

And the Ki (Human σ1 receptor)?
The Ki was 500 to 1000 nM.

What does the source list for `CCC[C@H](c1nc2c(F)cccc2c(=O)n1CC)N1CCCN(C)CC1` [Example 248, (R)-3-ethyl-8-fluoro-2-(1-(4-methyl-1,4-diazepan-1-yl)butyl)quinazolin-4(3H)-one]?
Ki [1]: < 500 nM; Ki (Human σ1 receptor): > 1000 nM

What does the source list for `CCC[C@H](c1nc2ccc(OC(F)(F)F)cc2c(=O)n1CC)N1CCCN(C)CC1` [Example 249, (R)-3-ethyl-2-(1-(4-methyl-1,4-diazepan-1-yl)butyl)-6-(trifluoromethoxy)quinazolin-4(3H)-one]?
Ki [1]: < 500 nM; Ki (Human σ1 receptor): 500 to 1000 nM

With `CCC[C@H](c1nc2c(F)cc(F)cc2c(=O)n1CC)N1CCN[C@H](C)CC1` [Example 250, 3-ethyl-6,8-difluoro-2-((R)-1-((R)-5-methyl-1,4-diazepan-1-yl)butyl)quinazolin-4(3H)-one] as the compound, how does the Ki [1] read?
The Ki was > 5000 nM.

What about the Ki (Human σ1 receptor) of the same compound?
The Ki was > 1000 nM.

How did the Ki [1] turn out when `CCC[C@H](c1nc2c(F)cc(F)cc2c(=O)n1CC)N1CCN[C@@H](C)CC1` [Example 251, 3-ethyl-6,8-difluoro-2-((R)-1-((S)-5-methyl-1,4-diazepan-1-yl)butyl)quinazolin-4(3H)-one] was run?
The Ki was 500 to 5000 nM.

What about the Ki (Human σ1 receptor) of the same compound?
Its Ki is < 500 nM.

How did the Ki [1] turn out when `CCC[C@H](c1nc2ccc(C(F)(F)F)cc2c(=O)n1CC)N1CCCN(C)CC1` [Example 252, (R)-3-ethyl-2-(1-(4-methyl-1,4-diazepan-1-yl)butyl)-6-(trifluoromethyl)quinazolin-4(3H)-one] was run?
The Ki was < 500 nM.

And the Ki (Human σ1 receptor)?
Its Ki is < 500 nM.

Which results are given for `CCC[C@H](c1nc2ccc(F)cc2c(=O)n1CC)N1CCCNC(C)(C)C1` [Example 253]?
Ki [1]: > 5000 nM; Ki (Human σ1 receptor): 500 to 1000 nM

With `CCC[C@H](c1nc2ccc(Cl)cc2c(=O)n1C)N1CC[C@H](C)N(C)CC1` [Example 254, 6-chloro-2-((R)-1-((S)-4,5-dimethyl-1,4-diazepan-1-yl)butyl)-3-methylquinazolin-4(3H)-one] as the compound, how does the Ki [1] read?
Its Ki is > 5000 nM.

And the Ki (Human σ1 receptor)?
Its Ki is < 500 nM.

For `CCC[C@H](c1nc2ccc(F)cc2c(=O)n1C)N1CCN[C@H](C)CC1` [Example 255, 6-fluoro-3-methyl-2-((R)-1-((R)-5-methyl-1,4-diazepan-1-yl)butyl)quinazolin-4(3H)-one], which Ki [1] is on record?
The Ki was > 5000 nM.

And the Ki (Human σ1 receptor)?
The Ki was > 1000 nM.

With `CCC[C@H](c1nc2ccc(F)cc2c(=O)n1C)N1CCN[C@@H](C)CC1` [Example 256, 6-fluoro-3-methyl-2-((R)-1-((S)-5-methyl-1,4-diazepan-1-yl)butyl)quinazolin-4(3H)-one] as the compound, how does the Ki [1] read?
Its Ki is 500 to 5000 nM.

What about the Ki (Human σ1 receptor) of the same compound?
The Ki was < 500 nM.

With `CCC[C@H](c1nc2ccc(Cl)cc2c(=O)n1C)N1CC[C@@H](C)N(C)CC1` [Example 257, 6-chloro-2-((R)-1-((R)-4,5-dimethyl-1,4-diazepan-1-yl)butyl)-3-mehtylquinazolin-4(3H)-one] as the compound, how does the Ki [1] read?
The Ki was > 5000 nM.

What about the Ki (Human σ1 receptor) of the same compound?
The Ki was < 500 nM.

With `CCC[C@H](c1nc2ccc(C(F)(F)F)cc2c(=O)n1CC)N1CCN[C@H](C)CC1` [Example 258, 3-ethyl-2-((R)-1-((R)-5-methyl-1,4-diazepan-1-yl)butyl)-6-(trifluoromethyl)quinazolin-4(3H)-one] as the compound, how does the Ki [1] read?
The Ki was 500 to 5000 nM.

And the Ki (Human σ1 receptor)?
The Ki was < 500 nM.

Which Ki [1] does the source give for `CCC[C@H](c1nc2ccc(C(F)(F)F)cc2c(=O)n1CC)N1CCN[C@@H](C)CC1` [Example 259, 3-ethyl-2-((R)-1-((S)-5-methyl-1,4-diazepan-1-yl)butyl)-6-(trifluoromethyl)quinazolin-4(3H)-one] here?
Its Ki is < 500 nM.

And the Ki (Human σ1 receptor)?
The Ki was < 500 nM.
